Test results: patent US20110039762A1, “TARGETED ANTIMICROBIAL MOIETIES” (C3 JIAN, INC., priority 2009, published 2011)
“Also recorded” adds a separate entry of the source. Ends that are not written are not given here.

What was measured:
[1] = test system: microorganisms; assay: Peptides having multiple activities (targeting/binding, antimicrobial, growth or phenotype altering)
Text: In certain embodiments, peptides described herein can have multiple activities. Thus for example, a peptide can have both binding/targeting activity and antimicrobial activity. Such peptides can be used, e.g., in a chimeric construct, for any or all of these properties. Thus, for example, a peptide designated “B” in Table 8 can be used as a targeting peptide. If it is also designated G or M it can also be used for antimicrobial activity.

[2] = test system: microorganisms (e.g., bacteria, yeasts, fungi); assay: Targeting peptide binding to target microorganisms (Table 3); conditions: preferably 1x PBS; for Target(s): microorganism(s) the targeting peptide binds, peptide binding conducted in aqueous buffers varied by peptide solubility; for Target(s) (microorganisms bound by the targeting peptide): peptide binding in aqueous buffers varied by peptide solubility
[3] = test system: S. pneumoniae; assay: MIC (broth microdilution); type: cell-based, Streptococcus pneumoniae
Protocol: (§1) Typically, the in vitro antimicrobial activity of antimicrobial agents is tested using standard NCCLS bacterial inhibition assays, or MIC tests (see, National Committee on Clinical Laboratory Standards “Performance Standards for Antimicrobial Susceptibility Testing,” NCCLS Document M100-S5 Vol. 14, No. 16, December 1994; “Methods for dilution antimicrobial susceptibility test for bacteria that grow aerobically-Third Edition,” Approved Standard M7-A3, National Committee for Clinical Standards, Villanova, Pa.).
(§2) Briefly, ˜1×10^5 cfu/mL bacteria were diluted in TH (S. mutans), or Mueller-Hinton (MH) broth (all other organisms) and distributed to 96-well plates. Serially-diluted (2-fold) peptides were then added and the plates incubated at 37° C. for 18-24 h. […] All experiments were conducted 10 times.

[4] = test system: S. pneumoniae; assay: Kill or inhibit growth/proliferation; morphology, biofilm and growth disruption (Tables 5, 6); type: cell-based, Streptococcus pneumoniae; set-up: key: A: Peptide aggregates; B: Less hyphal formation; Clumps; Diffuse clumps and small polyps; F: Diffuse growth; H: Thin; I: Growth inhibition; Microcolony formation; Rippled; Small polyps; Thick; W: Halo formation on top, microlonies on bottom; also: test concentration or dose not given here
[5] = test system: B. subtilis; assay: MIC (broth microdilution); type: cell-based, Bacillus subtilis
Protocol: as §1, §2

[6] = test system: S. epidermidis; assay: Kill or inhibit growth/proliferation; morphology, biofilm and growth disruption (Tables 5, 6); type: cell-based, Staphylococcus epidermidis; set-up: key: A: Peptide aggregates; B: Less hyphal formation; Clumps; Diffuse clumps and small polyps; F: Diffuse growth; H: Thin; I: Growth inhibition; Microcolony formation; Rippled; Small polyps; Thick; W: Halo formation on top, microlonies on bottom; also: test concentration or dose not given here
[7] = test system: B. subtilis; assay: as above; type: cell-based, Bacillus subtilis; set-up: key: A: Peptide aggregates; B: Less hyphal formation; Clumps; Diffuse clumps and small polyps; F: Diffuse growth; H: Thin; I: Growth inhibition; Microcolony formation; Rippled; Small polyps; Thick; W: Halo formation on top, microlonies on bottom
[8] = test system: S. mutans; type: cell-based, Streptococcus mutans; conditions: S. mutans; as to Organism, effect (morphology, biofilm and growth disruption): test concentration or dose not given here
Protocol: as §1, §2

[9] = test system: F. nucleatum; assay: Kill or inhibit growth/proliferation; morphology, biofilm and growth disruption (Tables 5, 6); type: cell-based, Fusobacterium nucleatum; set-up: key: A: Peptide aggregates; B: Less hyphal formation; Clumps; Diffuse clumps and small polyps; F: Diffuse growth; H: Thin; I: Growth inhibition; Microcolony formation; Rippled; Small polyps; Thick; W: Halo formation on top, microlonies on bottom; also: test concentration or dose not given here
[10] = test system: S. mutans; assay: as above; type: cell-based, Streptococcus mutans; set-up: key: A: Peptide aggregates; B: Less hyphal formation; Clumps; Diffuse clumps and small polyps; F: Diffuse growth; H: Thin; I: Growth inhibition; Microcolony formation; Rippled; Small polyps; Thick; W: Halo formation on top, microlonies on bottom
For Organism, effect in this document: test concentration or dose not given here.

Substance	Activities [1]	Organism, effect (morphology, biofilm and growth disruption) [9]	Target(s) (microorganisms bound by the targeting peptide) [2]	other results
ASKQASKQASKQASKQASKQASRSLKNHLL [PF-523]	B M			Target(s) [2]: S. epidermidis; also recorded: M. luteus; also recorded: C. albicans; also recorded: S. pneumoniae; also recorded: C. jeikeium; also recorded: C. jejuni; MIC [3]: S. pneumoniae, 50 μM
CGKLLEQKNFFLKTR [PF-521]	G B M			Organism, effect [4]: S. pneumoniae (H); Target(s) [2]: S. epidermidis; also recorded: E. coli; also recorded: P. aeruginosa; also recorded: S. pneumoniae; also recorded: E. faecalis; MIC [3]: S. pneumoniae, 50 μM
FQKPFTGEEVEDFQDDDEIPTII [PF-437]	G M			Organism, effect [4]: S. pneumoniae (I); MIC [3]: S. pneumoniae, 50 μM
GIVLIGLKLIPLLANVLR [PF-322]	G M			MIC [5]: B. subtilis, 50 μM; Organism, effect [6]: S. epidermidis (C); Organism, effect [7]: B. subtilis (H)
LGLTAGVAYAAQPTNQPTNQPTNQPTNQPTNQPTNQPRW-NH2 [PF-520]	G B M			Organism, effect [4]: S. pneumoniae (M); MIC [3]: S. pneumoniae, 50 μM
LRKFLHKLF [Peptide K-14]				MIC [8]: S. mutans, 8 μM
LRKNLRWLF [Peptide K-15]				MIC [8]: S. mutans, 4 μM
LVLRICTDLFTFIKWTIKQRKS [PF-497]	B M			MIC [5]: B. subtilis, 50 μM; Target(s) [2]: S. mutans; also recorded: B. subtilis; also recorded: E. coli
NYRLVNAIFSKIFKKKFIKF [Peptide K-7]				MIC [8]: S. mutans, 12.5 μM
PF-C055: peptide having multiple activities (YNLSIYIYFLHTITIAGLITLPFII; Peptide with targeting and/or antimicrobial activity)	G B	F. nucleatum (T)	A. naeslundii; also recorded: F. nucleatum; also recorded: P. gingivalis; also recorded: S. mutans	Organism, effect (morphology, biofilm and growth disruption) [10]: S. mutans (I)
PF-C062: peptide having multiple activities (PLARATEVVATLFIICSLLLYLTR; Peptide with targeting and/or antimicrobial activity)	G B	F. nucleatum (T)	A. naeslundii; also recorded: F. nucleatum; also recorded: P. gingivalis; also recorded: S. mutans; also recorded: T. denticola	Organism, effect (morphology, biofilm and growth disruption) [10]: S. mutans (I)
PF-C064: peptide having multiple activities (DEEALEMGANLYAQFAIDFLNSKK; Peptide with targeting and/or antimicrobial activity)	G B	F. nucleatum (T)	A. naeslundii; also recorded: F. nucleatum; also recorded: P. gingivalis; also recorded: S. mutans; also recorded: T. denticola	
PF-C069: peptide having multiple activities (NALMLREMQLAKNIKVEVTDVLSNKKYC; Peptide with targeting and/or antimicrobial activity)	G B	F. nucleatum (T)	A. naeslundii; also recorded: F. nucleatum; also recorded: P. gingivalis; also recorded: S. mutans; also recorded: T. denticola	
PF-C071: peptide having multiple activities (QVIVKIL; Peptide with targeting and/or antimicrobial activity)	G B	F. nucleatum (T)	A. naeslundii; also recorded: F. nucleatum; also recorded: S. mutans	
PF-C091: peptide having multiple activities (ASNTPRFVRLTLFNFYSKIWNVTHLFLFNNL; Peptide with targeting and/or antimicrobial activity)	G B	F. nucleatum (T)	A. naeslundii; also recorded: F. nucleatum; also recorded: P. gingivalis; also recorded: S. mutans; also recorded: T. denticola	
PF-C120: peptide having multiple activities (ASLSTMTFKVMELKELIILLCGLTMLMIQTEFV; Peptide with targeting and/or antimicrobial activity)	G B	F. nucleatum (T)	A. naeslundii; also recorded: F. nucleatum; also recorded: P. gingivalis; also recorded: S. mutans; also recorded: T. denticola	
PF-C131: peptide having multiple activities (QWIVAKREIRMHIYCHISVIHVIIFFG; Peptide with targeting and/or antimicrobial activity)	G B	F. nucleatum (T)	A. naeslundii; also recorded: F. nucleatum; also recorded: P. gingivalis; also recorded: S. mutans	Organism, effect (morphology, biofilm and growth disruption) [10]: S. mutans (F)
PF-C137: peptide having multiple activities (QRMYWFKRGFETGDFSAGDTFAELK; Peptide with targeting and/or antimicrobial activity)	G B	F. nucleatum (T)	A. naeslundii; also recorded: F. nucleatum; also recorded: P. gingivalis; also recorded: S. mutans	
PF-C143: peptide having multiple activities (VVFGGGDRLV; Peptide with targeting and/or antimicrobial activity)	G B	F. nucleatum (C)	A. naeslundii; also recorded: F. nucleatum; also recorded: P. gingivalis; also recorded: S. mutans; also recorded: T. denticola	
PF-C145: peptide having multiple activities (YGKESDP; Peptide with targeting and/or antimicrobial activity)	G B	F. nucleatum (C)	A. naeslundii; also recorded: F. nucleatum; also recorded: P. gingivalis; also recorded: S. mutans; also recorded: T. denticola	Organism, effect (morphology, biofilm and growth disruption) [10]: S. mutans (I)
PF-C181: peptide having multiple activities (KMRAGQVVFIYKLILVLLFYVLQKLFDLKKGCF; Peptide with targeting and/or antimicrobial activity)	G B	F. nucleatum (T)	P. gingivalis	
PF-C214 (GGHKQLVIEPLVSQ; Peptide with targeting and/or antimicrobial activity)		F. nucleatum (T)		
PF-C291: peptide having multiple activities (HPFLTGTGCPLFLIFRLFFVKAYFSFTVF; Peptide with targeting and/or antimicrobial activity)	G B	F. nucleatum (T)	A. naeslundii; also recorded: F. nucleatum; also recorded: P. gingivalis; also recorded: S. mutans	Organism, effect (morphology, biofilm and growth disruption) [10]: S. mutans (F)
SFMPEIQKNTIPTQMK [PF-512]	G B M			Organism, effect [4]: S. pneumoniae (H); Target(s) [2]: S. pneumoniae; also recorded: C. jeikeium; MIC [3]: S. pneumoniae, 50 μM
VYRKRKSILKIYAKLKGWH [Peptide K-2]				MIC [8]: S. mutans, 12.5 μM
VYSFLYVLVIVRKLLSMKKRIERL [PF-499]	B M			MIC [5]: B. subtilis, 50 μM; Target(s) [2]: S. mutans; also recorded: E. coli
